Laboratory results reported in ChEMBL document CHEMBL4706683 (J Med Chem, 2021).
The source made the active and inactive calls. The rule behind the calls is not given here.

Tests used:
[1] = Selectivity index, ratio of IC50 for cytotoxicity against human HEK293T cells assessed to IC50 for antiplasmodial activity against synchronized ring stage Plasmodium falciparum 3D7 infected in human erythrocytes; assay type: toxicity, cell-based; conditions: read-out: Ratio IC50
[2] = tested on: Plasmodium falciparum; test: Antiplasmodial activity against artemisinin-resistant Plasmodium falciparum 6218 infected in human erythrocytes assessed as reduction in parasite growth incubated for 72 hrs by Giemsa staining based light microscopic method; assay type: functional, organism-based; conditions: Plasmodium falciparum, 6218, Erythrocyte
[3] = tested on: Plasmodium yoelii; test: Antiplasmodial activity against blood stage Plasmodium yoelii infected in Balb/c mouse assessed as reduction in parasitemia at 60 mg/kg, ip QD for 5 consecutive days and measured on day 30 by microscopic analysis; assay type: functional, organism-based; conditions: time 5.0 day
[4] = tested on: Plasmodium falciparum; test: Antiplasmodial activity against Plasmodium falciparum C2A infected in human erythrocytes assessed as reduction in parasite growth incubated for 72 hrs by Giemsa staining based light microscopic method; assay type: functional, organism-based; conditions: Erythrocyte
[5] = tested on: HEK-293T; test: Cytotoxicity against human HEK293T cells assessed as reduction in cell viability incubated for 72 hrs by cell titer glo assay; assay type: cell-based
[6] = tested on: Plasmodium falciparum; test: Antiplasmodial activity against synchronized ring stage Plasmodium falciparum Dd2 infected in human erythrocytes assessed as reduction in parasite growth incubated for 72 hrs by Giemsa staining based light microscopic method; assay type: functional, organism-based; conditions: Dd2, Erythrocyte
[7] = Clearance in mouse liver microsomes incubated upto 45 mins in presence of NADPH by LC-MS/MS analysis; assay type: ADME, Microsome; conditions: read-out: CLH
[8] = tested on: Plasmodium falciparum; test: Antiplasmodial activity against artemisinin-resistant ring stage Plasmodium falciparum 6320 infected in human erythrocytes assessed as reduction in parasite growth incubated for 72 hrs by Giemsa staining based light microscopic method; assay type: functional, organism-based; conditions: Plasmodium falciparum, 6320, Erythrocyte
[9] = Toxicity in Balb/c mouse infected with blood stage Plasmodium yoelii assessed as animal death at 60 mg/kg, ip QD for 5 consecutive days and measured on day 30; assay type: organism-based; conditions: in vivo, 120 h, time 5 day
[10] = tested on: Plasmodium falciparum; test: Antiplasmodial activity against Plasmodium falciparum GB4 infected in human erythrocytes assessed as reduction in parasite growth incubated for 72 hrs by Giemsa staining based light microscopic method; assay type: functional, organism-based; conditions: GB4, Erythrocyte
[11] = tested on: Plasmodium falciparum; test: Antiplasmodial activity against Plasmodium falciparum CP286 infected in human erythrocytes assessed as reduction in parasite growth incubated for 72 hrs by Giemsa staining based light microscopic method; assay type: functional, organism-based; conditions: CP286, Erythrocyte
[12] = tested on: Plasmodium falciparum; test: Antiplasmodial activity against synchronized ring stage Plasmodium falciparum 3D7 infected in human erythrocytes assessed as reduction in parasite growth incubated for 72 hrs by Giemsa staining based light microscopic method; assay type: functional, organism-based; conditions: 3D7, Erythrocyte
[13] = Selectivity index, ratio of IC50 for cytotoxicity against human HepG2 cells assessed to IC50 for antiplasmodial activity against synchronized ring stage Plasmodium falciparum 3D7 infected in human erythrocytes; assay type: toxicity, cell-based; conditions: read-out: Ratio IC50
[14] = tested on: HepG2; test: Cytotoxicity against human HepG2 cells assessed as reduction in cell viability incubated for 72 hrs by cell titer glo assay; assay type: cell-based; conditions: HepG2, 72 h
[15] = Half life in mouse liver microsomes incubated upto 45 mins in presence of NADPH by LC-MS/MS analysis; assay type: ADME, Microsome

Row | SMILES | selectivity ratio [1] | IC50 [2] [nM] | Activity [3] | IC50 [4] [nM] | IC50 [5] [nM] | IC50 [6] [nM] | CLint scaled [7] [mL/min/kg] | IC50 [8] [nM] | Activity [9] | IC50 [10] [nM] | IC50 [11] [nM] | IC50 [12] [nM] | selectivity ratio [13] | IC50 [14] [nM] | half-life [15] [h]
1 | Cl.Cn1cc(CN2CCC3(CCN(c4ncc(C(=O)NO)cn4)CC3)C2)c2cccnc21 | 132 | 5 | inactive | 6.18 | 399 | 3.4 | 33.1 | 5.2 | Non-Toxic | 6.4 | 6.8 | 3 | 93 | 281 | 2.75
2 | O=C(NO)c1cnc(N2CCC3(CCN(Cc4cccc5ccncc45)C3)CC2)nc1 | 26 | – | – | – | 207 | 6.9 | – | – | – | – | – | 8.1 | 51 | 415 | –
3 | O=C(NO)c1cnc(N2CCC3(CCN(Cc4ccccn4)C3)CC2)nc1 | 106 | – | – | – | 1720 | 23.3 | – | – | – | – | – | 16.2 | 80 | 1300 | –
4 | O=C(NO)c1cnc(N2CCC3(CCN(Cc4ccc(-c5ccccc5)cc4)C3)CC2)nc1 | 21 | – | – | – | 732 | 46.1 | – | – | – | – | – | 34.5 | 19 | 641 | –
5 | O=C(NO)c1cnc(N2CCC3(CCN(Cc4csc5ccccc45)C3)CC2)nc1 | 25 | – | – | – | 109 | 3.6 | – | – | – | – | – | 4.3 | 18 | 79 | –
6 | Cl.Cn1cc(CN2CCC3(CCN(c4ncc(C(=O)NO)cn4)CC3)C2)c2ncccc21 | 235 | 4.04 | inactive | 5 | 755 | 4.3 | 40.4 | 3.8 | Non-Toxic | 3.7 | 5.5 | 3.22 | 266 | 855 | 2.25
7 | Cl.Cn1cc(CN2CCC3(CCN(c4ncc(C(=O)NO)cn4)CC3)C2)c2cnccc21 | 370 | 8.7 | – | 11.7 | 1460 | 4.9 | 43.5 | 8.4 | Toxic | 9.5 | 11.1 | 4 | 248 | 982 | 2.09
8 | O=C(NO)c1cnc(N2CCC3(CCN(Cc4ccc5ccccc5n4)C3)CC2)nc1 | 57 | – | – | – | 393 | 2.98 | – | – | – | – | – | 6.9 | 47 | 320 | –
9 | O=C(NO)c1cnc(N2CCC3(CCN(Cc4ccncc4)C3)CC2)nc1 | 206 | – | – | – | 3470 | 22.8 | – | – | – | – | – | 16.9 | 193 | 3250 | –
10 | Cl.Cn1cc(CN2CCC3(CCN(c4ncc(C(=O)NO)cn4)CC3)C2)c2ccccc21 | 22 | 3.5 | – | 4.87 | 60 | 2.5 | 424 | 4.1 | Toxic | 3.7 | 3.9 | 2.8 | 26 | 72 | 0.214
11 | O=C(NO)c1cnc(N2CCC3(CCN(Cc4coc5ccccc45)C3)CC2)nc1 | 42 | – | – | – | 576 | 10.9 | – | – | – | – | – | 13.6 | 65 | 886 | –
12 | O=C(NO)c1cnc(N2CCC3(CCN(CC4CCCC4)C3)CC2)nc1 | 90 | – | – | – | 1220 | 12.7 | – | – | – | – | – | 13.6 | 46 | 630 | –
13 | O=C(NO)c1cnc(N2CCC3(CCN(Cc4ccc5ccccc5c4)C3)CC2)nc1 | 118 | – | – | – | 484 | 3.16 | – | – | – | – | – | 4.1 | 56 | 228 | –
14 | O=C(NO)c1cnc(N2CCC3(CCN(Cc4cccc5ncccc45)C3)CC2)nc1 | 48 | – | – | – | 559 | 9.2 | – | – | – | – | – | 11.6 | 64 | 740 | –
15 | C[C@H]1[C@@H](O)O[C@@H]2O[C@@]3(C)CC[C@H]4[C@H](C)CC[C@@H]1[C@@]24OO3 [ARTENIMOL] | – | 5.2 | – | 3.7 | – | 2.68 | – | 5.9 | – | 3.2 | 5.6 | 2.7 | – | – | –
